For assay [1], the target named is T1, 5-HT1A serotonin receptor (Rattus norvegicus, UniProt P19327).
T1 construct: Hippocampal tissue from male Sprague Dawley rats is dissected and homogenized; from tissue; host or cells: hippocampus of male Sprague Dawley rats, membrane homogenate
T1 sequence (P19327 1-422): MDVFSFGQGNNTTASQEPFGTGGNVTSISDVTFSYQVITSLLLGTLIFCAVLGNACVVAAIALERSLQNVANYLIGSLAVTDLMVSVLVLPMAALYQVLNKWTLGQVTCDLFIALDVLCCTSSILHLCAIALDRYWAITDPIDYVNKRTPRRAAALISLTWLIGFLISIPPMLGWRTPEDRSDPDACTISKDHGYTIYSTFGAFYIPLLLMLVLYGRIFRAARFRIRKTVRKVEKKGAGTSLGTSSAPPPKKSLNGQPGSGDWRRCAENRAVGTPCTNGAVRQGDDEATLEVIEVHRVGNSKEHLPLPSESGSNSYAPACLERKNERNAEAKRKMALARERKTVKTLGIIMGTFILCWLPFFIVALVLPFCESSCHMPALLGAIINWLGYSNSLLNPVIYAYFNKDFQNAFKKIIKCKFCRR
The experiment in a line: inhibition of 5-HT1A serotonin receptor binding (3H-8-OH-DPAT). More on the design: species or system male Sprague Dawley rats. The settings on record: rat hippocampal tissue; for inhibition at 0.1 µM: at 100 nM. Here is the method:
The assay is carried out as follows: Hippocampal tissue from male Sprague Dawley rats is dissected and homogenized on ice in 40 volumes of buffer A (50 mM Tris HCl, pH = 7.7) using a Polytron homogenizer at setting 5 for 3 x 15 second bursts. The homogenate is then centrifuged at 20,000 rpm (RC5-B; 50,000 g) and the supernatant discarded. The pellet is resuspended in 40 volumes of the same buffer and incubated at 37°C for 10 minutes to aid in the removal of endogenous serotonin. The homogenate is then centrifuged (as above) and the supernatant discarded. The pellet is then resuspended in 100 volumes of buffer B (50 mM Tris HCl, pH = 7.7 containing 0.1% ascorbate, 10 µM pargyline and 4 mM CaCl₂) and sonicated. An aliquot is taken for protein determination by the Lowry method and the remainder stored frozen at -70°C until used.
The homogenate (50 µL; 0.4-0.6 mg protein/sample) is incubated with 100 µL (1.5-1.8 nM) ³H-8-hydroxy-2-(di-n-propylamino)tetraline (³H-8-OH-DPAT) in a final volume of 2 mL of buffer for 10 minutes at 37°C. At the end of the incubation, 3 mL of cold buffer A are added to each tube, and the contents rapidly filtered through Whatman GF/B glass filters. The filters are then rapidly washed 2 times with 3 mL of the same buffer, placed in scintillation vials, and shaken for 15 minutes with 10 mL of Hydrofluor (National Diagnostics) scintillation cocktail. The vials are then counted in a Packard 460 CD scintillation counter.
Specific binding is defined as total binding less binding in the presence of excess unlabeled serotonin (1 µM). Binding in the presence of various concentrations of test drug is expressed as a percent of specific binding when no drug is present. […] Linear regression analysis then yields a straight line with 95% confidence limits from which an IC₅₀ can be inversely predicted.

Another assay concerns the target T2, 5-HT₂ (Rattus norvegicus, UniProt P14842).
T2 construct: employing rat brain cortex homogenate as the receptor tissue; from tissue; host or cells: rat brain cortex, membrane homogenate
The experiment in a line: 5-HT2 inhibition of 3H-spiroperidol binding, brain cortex homogenate. To be noted: read-out: % Inhibition at 1 µM 5-HT₂.

The target in the next assay is T3, M1 muscarinic receptor (Rattus norvegicus, UniProt P08482).
T3 construct: from tissue; host or cells: rat hippocampus, membrane fraction
T3 sequence (P08482 1-460): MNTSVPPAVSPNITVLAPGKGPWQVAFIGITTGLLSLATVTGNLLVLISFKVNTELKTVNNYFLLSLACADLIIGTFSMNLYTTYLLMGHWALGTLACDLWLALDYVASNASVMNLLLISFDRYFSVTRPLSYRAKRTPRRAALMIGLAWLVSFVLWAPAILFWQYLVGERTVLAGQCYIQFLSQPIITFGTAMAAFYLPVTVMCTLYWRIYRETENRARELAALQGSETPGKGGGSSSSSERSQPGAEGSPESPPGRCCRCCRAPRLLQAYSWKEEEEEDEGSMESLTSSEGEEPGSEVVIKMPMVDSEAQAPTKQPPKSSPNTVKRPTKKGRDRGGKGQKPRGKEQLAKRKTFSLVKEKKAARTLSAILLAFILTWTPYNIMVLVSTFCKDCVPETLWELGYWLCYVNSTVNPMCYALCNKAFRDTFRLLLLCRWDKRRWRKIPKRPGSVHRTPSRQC
In words: M1 muscarinic receptor binding ([3H] pirenzipine, hippocampus tissue). The procedure: The M1 muscarinic receptor binding properties of the compounds of this invention were established as follows:
The resulting pellet is resuspended in the original volume of 0.32 M aqueous sucrose. The sample is then diluted 1:2 in 10 mM Na₂HPO₄/KH₂PO₄ buffer (pH = 7.4). A 100 µL sample of the buffered tissue suspension is incubated at 25°C for 60 minutes in the dark with 10 µL of test compound or vehicle for control and [³H] pirenzipine (0.5 nM, 0.04 µCi) q.s. 1 milliliter with the buffer solution. Atropine sulfate (2 µM) is added to half the samples being processed. Binding is terminated by vacuum filtration onto Whatman GF/B filters which are washed three times with the buffer solution (3 ml/wash, 4°C). […] Specific [³H] PZ binding is defined as total binding minus binding in the presence of 2 µM atropine sulfate.

A further assay addresses T4, M2 receptor (Rattus norvegicus, UniProt P10980).
T4 sequence (P10980 1-466): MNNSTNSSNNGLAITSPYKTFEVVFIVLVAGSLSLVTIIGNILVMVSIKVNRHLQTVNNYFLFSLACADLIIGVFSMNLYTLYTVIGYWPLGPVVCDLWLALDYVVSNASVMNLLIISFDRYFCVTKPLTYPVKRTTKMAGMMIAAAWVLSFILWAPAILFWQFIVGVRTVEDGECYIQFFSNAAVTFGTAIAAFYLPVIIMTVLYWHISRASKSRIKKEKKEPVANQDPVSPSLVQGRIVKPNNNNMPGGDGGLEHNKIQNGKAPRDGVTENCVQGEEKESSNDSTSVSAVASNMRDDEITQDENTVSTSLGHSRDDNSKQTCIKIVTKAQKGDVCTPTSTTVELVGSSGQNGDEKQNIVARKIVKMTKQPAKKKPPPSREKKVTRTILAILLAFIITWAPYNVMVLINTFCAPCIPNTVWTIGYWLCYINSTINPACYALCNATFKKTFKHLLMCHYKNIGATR
In words: M2 receptor binding ([3H] quinuclidinyl benzilate, cerebellum tissue). The settings on record: [3H] quinuclidinyl benzilate 0.23 nM, read-out: IC₅₀for M₂.

Where [2] appears, read: at 1 µM, rat brain cortex homogenate, 3H-spiroperidol.

Read-outs that look alike come from different tables or passages of the source.

T2 sequence (P14842 whole entry): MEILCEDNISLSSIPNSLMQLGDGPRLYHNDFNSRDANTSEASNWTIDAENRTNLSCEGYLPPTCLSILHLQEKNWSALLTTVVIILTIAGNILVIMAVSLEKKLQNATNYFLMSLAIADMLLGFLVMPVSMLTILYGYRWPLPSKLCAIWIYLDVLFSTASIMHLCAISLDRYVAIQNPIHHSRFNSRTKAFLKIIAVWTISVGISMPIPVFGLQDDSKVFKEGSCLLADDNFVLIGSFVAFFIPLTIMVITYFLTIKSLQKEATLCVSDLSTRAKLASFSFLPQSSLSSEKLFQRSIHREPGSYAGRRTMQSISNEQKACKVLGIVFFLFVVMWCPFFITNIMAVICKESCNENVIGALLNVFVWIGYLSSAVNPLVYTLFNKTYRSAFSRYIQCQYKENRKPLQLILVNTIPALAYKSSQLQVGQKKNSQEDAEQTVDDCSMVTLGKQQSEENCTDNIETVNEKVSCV

For orientation: inhibition means how much of the control response was suppressed. The compound `O=C1CC2(CCCC2)CC(=O)N1CCCCN1CCN(c2ncccn2)CC1` [Buspirone, reference compound] returned an inhibition at 1 µM in assay [1] of 94%.
A word on the Ki: it is the equilibrium dissociation constant of an inhibitor or competing ligand from its target. Higher therefore signals a looser hold on the target. With `COc1ccccc1N1CCN(CCCNC(=O)C23CC4CC(CC(C4)C2)C3)CC1` [Example 1, N-[3-[4-(2-Methoxyphenyl)-1-piperazinyl]propyl]tricyclo[3.3.1.1^3,7]decan-1-carboxamide], the inhibition at 1 µM in assay [1] is 98%; on 5-HT₂ (setting [2]), 92%. In assay [1], this compound returned a Ki of 1 nM.
Consider `O=C(NCCN1CCN(c2ncccn2)CC1)C12CC3CC(CC(C3)C1)C2` [Example 2, N-[2-[4-(2-Pyrimidyl)-1-piperazinyl]ethyl]tricyclo[3.3.1.1^3,7]decane-1-carboxamide], for which, in assay [1], testing at 1 µM gave an inhibition of 97% and affinity was put at a Ki of 1 nM. Further, at 5-HT₂ (setting [2]), the inhibition at 1 µM was 91%.
With `COc1ccccc1N1CCN(CCNC(=O)C23CC4CC(CC(C4)C2)C3)CC1` [Example 3, N-[2-[4-(2-Methoxyphenyl)-1-piperazinyl]ethyl]tricyclo[3.3.1.1^3,7]decane-1-carboxamide], the inhibition at 1 µM in assay [1] stood at 97%.
On to `O=C(NCCN1CCN(c2cccc(Cl)c2)CC1)C12CC3CC(CC(C3)C1)C2` [Example 4, N-[2-[4-(3-Chlorophenyl)-1-piperazinyl]ethyl]tricyclo[3.3.1.1^3,7]decane-1-carboxamide], for which the inhibition at 1 µM in assay [1] stood at 100%.
`O=C(NCCN1CCN(c2ncccn2)CC1)c1cc2ccccc2o1` [Example 5, N-[2-[4-(2-Pyrimidyl)-1-piperazinyl]ethyl]benzofurane-2-carboxamide] yielded an inhibition at 1 µM in assay [1] of 83%.
The compound `COc1ccccc1N1CCN(CCCNC(=O)c2cc3ccccc3o2)CC1` [Example 6, N-[3-[4-(2-Methoxyphenyl)-1-piperazinyl]propyl]benzofurane-2 carboxamide] returned an inhibition at 1 µM in assay [1] of 94%.
Turning to `COc1ccccc1N1CCN(CCCNC(=O)c2cc3ccccc3[nH]2)CC1` [Example 7, N-[3-[4-(2-Methoxyphenyl)-1-piperazinyl]propyl]-(1H)-indole-2 carboxamide], at 1 µM the inhibition in assay [1] was 91%.
The compound `O=C(NCCCN1CCN(c2cccc(Cl)c2)CC1)C12CC3CC(CC(C3)C1)C2` [Example 8, N-[3-[4-(3-Chlorophenyl)-1-piperazinyl]propyl]tricyclo[3.3.1.1^3,7]decane-1-carboxamide] returned an inhibition at 1 µM in assay [1] of 94%.
Consider `CC12CC3CC(C1)CC(CC(=O)NCCN1CCN(c4ncccn4)CC1)(C3)C2` [Example 9, N-[2-[4-(2-Pyrimidyl)-1-piperazinyl]ethyl]-3-methyltricyclo[3.3.1.1^3,7]decane-1-acetic Acid Carboxamide], for which the inhibition at 1 µM in assay [1] was 93%.
In the case of `O=C(NCCCN1CCN(c2ncccn2)CC1)C12CC3CC(CC(C3)C1)C2` [Example 10, N-[3-[4-(2-Pyrimidyl)-1-piperazinyl]propyl]tricyclo[3.3.1.1^3,7]decane-1-carboxamide], at 1 µM the inhibition in assay [1] was 82%.
Regarding `CC12CC3CC(C1)CC(CC(=O)NCCN1CCN(c4cccc(Cl)c4)CC1)(C3)C2` [Example 11, N-[2-[4-(3-Chlorophenyl)-1-piperazinyl]ethyl]-3-methyltricyclo[3.3.1.1^3,7]decane-1-acetic Acid Carboxamide], the inhibition at 1 µM in assay [1] was found to be 91%.
`COc1ccccc1N1CCN(CCNC(=O)CC23CC4CC(CC(C)(C4)C2)C3)CC1` [Example 12, N-[2-[4-(2-Methoxyphenyl)-1-piperazinyl]ethyl]-3-methyltricyclo[3.3.1.1^3,7]decane-1-acetic Acid Carboxamide] showed an inhibition at 1 µM in assay [1] of 98%.
Turning to `O=C(NCCN1CCN(c2ncccn2)CC1)C12CC3CC(CC1C3)C2` [Example 13, N-[2-[4-(2-Pyrimidyl)-1-piperazinyl]ethyl]hexahydro-2,5-methanopentalene-3a(1H)-carboxamide], the inhibition at 1 µM in assay [1] stood at 97%.
For the compound `COc1ccccc1N1CCN(CCNC(=O)C23CC4CC(CC2C4)C3)CC1` [Example 14, N-[2-[4-(2-Methoxyphenyl)-1-piperazinyl]ethyl]hexahydro-2,5-methanopentalene-3a(1H)-carboxamide], the inhibition at 0.1 µM in assay [1] turned out to be 100%.
Turning to `O=C(NCCN1CCN(c2cccc(Cl)c2)CC1)C12CC3CC(CC1C3)C2` [Example 15, N-[2-[4-(3-Chlorophenyl)-1-piperazinyl]ethyl]hexahydro-2,5-methanopentalene-3a(1H)-carboxamide], the IC50 is 240 nM at M1 muscarinic receptor (rat hippocampus, [3H] pirenzipine 0.5 nM, read-out: IC₅₀for M₁) and 11000 nM on M2 receptor. Also, the “M₂/M₁ Ratio” value on M1 muscarinic receptor (ratio of IC50 for M2 to IC50 for M1) was found to be 46. The same compound returned an inhibition at 0.1 µM in assay [1] of 99%.
With `O=C(NCCCN1CCN(c2ncccn2)CC1)C12CC3CC(CC1C3)C2` [Example 17, N-[3-[4-(2-Pyrimidyl)-1-piperazinyl]propyl]hexahydro-2,5-methanopentalene-3a(1H)-carboxamide], in assay [1], 1 µM produced 88% inhibition and the Ki is 67 nM.
As to `COc1ccccc1N1CCN(CCCNC(=O)C23CC4CC(CC2C4)C3)CC1` [Example 18, N-[3-[4-(2-Methoxyphenyl)-1-piperazinyl]propyl]hexahydro-2,5-methanopentalene-3a(1H)-carboxamide], 1 µM produced 99% inhibition in assay [1].
As to `O=C(NCCCN1CCN(c2cccc(Cl)c2)CC1)C12CC3CC(CC1C3)C2` [Example 19, N-[3-[4-(3-Chlorophenyl)-1-piperazinyl]propyl]hexahydro-2,5-methanopentalene-3a(1H)-carboxamide], in assay [1], 0.1 µM produced 75% inhibition and the Ki is 20 nM.
For the compound `CC1(C)CC(=O)N(CCCCN2CCN(c3ncccn3)CC2)C(=O)C1` [Gepirone, 4,4-dimethyl-1-[4-[4-(2-pyrimidinyl)-1-piperazinyl]-butyl]-2,6-piperidinedione, reference compound], the inhibition at 1 µM on 5-HT₂ was 20%.
